Measurements taken from US10286038B2, “Lysosome membrane protein 2 (LIMP-2) based peptides and related uses” (Northwestern University, priority 2016, dated 2019).

Tests used:
[1] = target: T1, recombinant α-mannosidase (LAMAN) (Homo sapiens, UniProt O00754); assay: recombinant LAMAN activity assay; assay type: biochemical; conditions: 1×-10× molar excess, acid pH
T1 construct: purchased Zymenex, Hillerod, DK
T1 sequence (O00754 50-1011): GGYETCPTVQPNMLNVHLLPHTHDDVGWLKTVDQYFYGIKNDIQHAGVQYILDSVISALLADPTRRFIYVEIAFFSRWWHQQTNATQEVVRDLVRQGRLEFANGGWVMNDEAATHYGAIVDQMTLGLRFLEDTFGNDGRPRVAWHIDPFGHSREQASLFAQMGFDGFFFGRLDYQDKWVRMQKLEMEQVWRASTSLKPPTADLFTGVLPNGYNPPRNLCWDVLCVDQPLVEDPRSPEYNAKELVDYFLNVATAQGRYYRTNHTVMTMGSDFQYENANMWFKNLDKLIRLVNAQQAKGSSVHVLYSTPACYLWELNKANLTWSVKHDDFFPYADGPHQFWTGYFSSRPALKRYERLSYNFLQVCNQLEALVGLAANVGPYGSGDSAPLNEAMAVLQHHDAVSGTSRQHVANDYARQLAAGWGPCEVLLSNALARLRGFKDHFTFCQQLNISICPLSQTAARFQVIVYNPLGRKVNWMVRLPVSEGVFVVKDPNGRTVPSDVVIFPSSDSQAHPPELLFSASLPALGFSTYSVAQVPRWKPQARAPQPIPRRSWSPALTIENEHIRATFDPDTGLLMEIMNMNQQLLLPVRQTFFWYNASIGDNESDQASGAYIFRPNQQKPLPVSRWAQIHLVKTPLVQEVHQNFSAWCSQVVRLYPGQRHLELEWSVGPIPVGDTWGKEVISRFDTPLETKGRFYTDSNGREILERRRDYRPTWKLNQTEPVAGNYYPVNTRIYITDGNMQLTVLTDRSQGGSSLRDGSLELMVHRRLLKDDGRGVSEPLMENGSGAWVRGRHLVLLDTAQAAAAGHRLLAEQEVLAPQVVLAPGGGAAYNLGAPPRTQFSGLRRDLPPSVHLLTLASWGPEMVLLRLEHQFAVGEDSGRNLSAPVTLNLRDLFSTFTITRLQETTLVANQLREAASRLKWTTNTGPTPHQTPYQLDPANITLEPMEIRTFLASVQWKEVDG
Description: (§1) To determine the enzymatic activity of the recombinant enzymes, lyophilized enzymes were reconstituted in the NaPi buffer described above. The lyophilized samples of wild-type GC (Cerezyme®) and the custom-made recombinant N307S mutant enzyme contain 0.01% polysorbate 80 (Tween 80) (see prescription information for Cerezyme® at the website for Cerezyme®). As indicated in our experiments, the concentration of the detergent is sufficient to support active GC enzyme and to perform the in vitro GC activity assays without adding further detergents to the reaction mix. For enzyme activity assays of recombinant proteins, 0.1-0.2 nmol of GC (Cerezyme®; N370S) and LAMAN were used in the absence or presence of 10× the molar amount of LIMP-2-derived peptides (Table 1) or LIMP-2 ectodomain (1-2 nmol) (Table 3).
All activity assays were performed at acid pH.

[2] = target: T2, recombinant N370S mutant GC (Homo sapiens, UniProt P04062, N409S); assay: activity assay of recombinant N370S mutant GC (4-MU substrate); assay type: biochemical; conditions: cell-free, tenfold molar amount of peptide, relative to buffer control
T2 sequence (P04062 40-536 N409S): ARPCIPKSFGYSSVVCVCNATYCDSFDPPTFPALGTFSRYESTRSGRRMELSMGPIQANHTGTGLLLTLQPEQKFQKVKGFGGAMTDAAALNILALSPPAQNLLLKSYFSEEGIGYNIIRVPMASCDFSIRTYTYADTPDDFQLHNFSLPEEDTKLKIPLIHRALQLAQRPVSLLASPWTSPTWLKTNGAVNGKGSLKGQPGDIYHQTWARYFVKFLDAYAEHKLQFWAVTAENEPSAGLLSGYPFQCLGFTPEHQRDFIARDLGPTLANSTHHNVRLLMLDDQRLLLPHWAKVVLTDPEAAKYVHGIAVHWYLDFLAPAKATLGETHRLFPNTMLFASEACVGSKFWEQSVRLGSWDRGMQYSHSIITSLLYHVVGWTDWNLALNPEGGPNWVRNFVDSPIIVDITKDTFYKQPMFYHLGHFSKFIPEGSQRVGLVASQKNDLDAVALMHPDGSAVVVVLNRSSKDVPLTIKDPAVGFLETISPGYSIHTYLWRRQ
Description: as §1, with “For enzyme activity assays of recombinant proteins, 0.1-0.2 nmol of GC (Cerezyme®; N370S) and LAMAN were used in the absence or presence of 10× the molar amount of LIMP-2-derived peptides (Table 1) or LIMP-2 ectodomain (1-2 nmol) (Table 3).” left out
Using the fluorescent substrate 4-MU (FIG. 3K), 10 μL of the recombinant enzyme/peptide mixture (0.1 nmol GC/N370S previously incubated with 1 nmol helix 5 TAT peptide in 50 mM NaPi buffer; total incubation volume 40 μL) were incubated directly with 60 μL of 0.2 M sodium citrate buffer and 10 μL of the substrate (5 mM dissolved in 0.2 M sodium citrate buffer) in a black-bottomed 96-well dish (Nunc no. 446473; Thermo Fisher Scientific). […] The fluorescence was assessed at an excitation wavelength of 365 nm and an emission wavelength of 445 nm in a SpectraMax i3 plate reader (Molecular Devices). […]

Substance	effect on enzymatic activity of recombinant LAMAN [1]	increase in the activity of the N370S mutant GC [2]
Biotin-Ttds-LREIIEAMLKAYQQKLFVTHTVDE [helix 5 peptide]	No effect	
Biotin-Ttds-KFERQLREIIEAMLKAYQQKLFVTHTVDEYGRKKRRQRRR [helix 5 TAT-peptide]		four-fold increase
